What was measured:
Type in all cases: biochemical
DYRK3 = target: T1, DYRK3 (Homo sapiens, UniProt O43781); experiment: Inhibition test on activity of DYRK family, mobility shift assay (MSA), DYRK3; conditions: ATP 20 μM, FITC-labeled DYRKtide peptide substrate, room temperature 1 hour; for IC50: read-out: Inhibitory Activity 3 (IC50 against DYRK3)
T1 construct: purchased Carna Biosciences, Inc. 04-133
T1 sequence (O43781 1-588): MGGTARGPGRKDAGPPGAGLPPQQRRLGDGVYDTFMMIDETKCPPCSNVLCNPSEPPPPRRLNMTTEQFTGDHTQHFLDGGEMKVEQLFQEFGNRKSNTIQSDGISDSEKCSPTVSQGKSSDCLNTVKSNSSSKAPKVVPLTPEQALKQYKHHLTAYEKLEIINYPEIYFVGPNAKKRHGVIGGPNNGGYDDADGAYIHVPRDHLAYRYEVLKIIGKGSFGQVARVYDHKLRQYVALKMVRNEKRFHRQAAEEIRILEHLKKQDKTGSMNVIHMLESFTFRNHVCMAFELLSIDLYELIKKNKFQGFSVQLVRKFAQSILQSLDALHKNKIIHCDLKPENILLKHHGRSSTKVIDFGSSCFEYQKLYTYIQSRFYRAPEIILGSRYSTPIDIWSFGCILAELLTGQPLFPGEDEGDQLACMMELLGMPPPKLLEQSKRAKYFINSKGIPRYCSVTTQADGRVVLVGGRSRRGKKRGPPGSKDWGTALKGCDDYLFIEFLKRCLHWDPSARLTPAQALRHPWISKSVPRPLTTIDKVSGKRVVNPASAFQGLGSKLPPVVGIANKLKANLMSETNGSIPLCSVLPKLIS
Description: (§1) [Inhibition Test on Activity of DYRK Family (DYRK1A, DYRK1B, DYRK2, and […])]
(§2) (Method for Measuring Kinase Activity)
(§3) The kinase activity was measured by mobility shift assay (MSA) method using QuickScout Screening Assist™ MSA (commercially available kit manufactured by Carna Biosciences, Inc.). The substrate of the kinase reaction used was an FITC-labeled DYRKtide peptide included in the kit. An assay buffer [20 mM HEPES, 0.01% Triton X-100™, 2 mM dithiothreitol, pH 7.5] was used to create a substrate mixture solution with a substrate (4 μM), MgCl2 (20 mM), and ATP (DYRK1A: 100 μM; DYRK1B: 200 μM; DYRK2: 40 μM; and DYRK3: 20 μM). In addition, kinases (DYRK1A: manufactured by Carna Biosciences, Inc., Cat. No. 04-130; DYRK1B: manufactured by Carna Biosciences, Inc., Cat. No. 04-131; DYRK2; manufactured by Carna Biosciences, Inc., Cat. No. 04-132; and DYRK3; manufactured by Carna Biosciences, Inc., Cat. No. 04-133) were diluted with the assay buffer to prepare enzyme solutions (DYRK1A: 0.2 ng/μL; DYRK1B: 0.08 ng/μL; DYRK2: 0.04 ng/μL; and DYRK3: 0.25 ng/μL). The 10 mM solution of the test compound in DMSO was further diluted with DMSO to 10 levels of the concentration (0.00003 mM, 0.0001 mM, 0.0003 mM, 0.001 mM, 0.003 mM, 0.01 mM, 0.03 mM, 0.1 mM, 0.3 mM, and 1 mM), each of which was subjected to 25-fold dilution with the assay buffer to obtain a drug solution (4% DMSO solution). 5 μL of the drug solution or a control solution (4% DMSO-assay buffer), 5 μL of the substrate mixture solution, and 10 μL of the enzyme solution were mixed in the wells of a polypropylene 384-well plate and allowed to react at room temperature for 1 hour, and then the reaction was quenched by adding 60 μL of the termination buffer included in the kit. Subsequently, the quantities of the substrates (S) and the phosphorylated substrate (P) in the reaction solution were measured using LabChip EZ Reader II system (manufactured by Caliper Life Sciences) according to the protocol of the assay kit.
(§4) (Method for Evaluating Inhibitory Activity)
(§5) The heights of the peaks of the “substrate” and the “phosphorylated substrate” were expressed as S and P, respectively, and a blank containing the assay buffer instead of the enzyme solution was also measured.
(§6) The inhibition rate (%) of the test compound was calculated according to the following equation:
(§7) Inhibition rate (%)=(1−(C−A)/(B−A))×100
(§8) wherein, A, B, and C represent P/(P+S) of the blank well, P/(P+S) of the control solution well, and P/(P+S) of the compound-containing well, respectively.
(§9) The IC50 value was calculated via a regression analysis of the inhibition rate and the test compound concentration (logarithmic value).
(§10) The inhibiting activities of representative compounds of the present invention are shown against DYRK1A, DYRK1B, DYRK2, and DYRK3 in Tables 7 and 8. The kinase activity inhibitory effect was indicated with the mark *** at an IC50 value of less than 0.01 μM; the mark ** at 0.01 μM or more and less than 0.1 μM; the mark * at 0.1 μM or more and less than 1 μM; and the mark — at 1 μM or more (N.D. indicates not measured).

DYRK2 = target: T2, DYRK2 (Homo sapiens, UniProt Q92630); experiment: Inhibition test on activity of DYRK family, mobility shift assay (MSA), DYRK2; conditions: ATP 40 μM, FITC-labeled DYRKtide peptide substrate, room temperature 1 hour; for IC50: read-out: Inhibitory Activity 2 (IC50 against DYRK2)
T2 construct: purchased Carna Biosciences, Inc. 04-132
T2 sequence (Q92630 1-601): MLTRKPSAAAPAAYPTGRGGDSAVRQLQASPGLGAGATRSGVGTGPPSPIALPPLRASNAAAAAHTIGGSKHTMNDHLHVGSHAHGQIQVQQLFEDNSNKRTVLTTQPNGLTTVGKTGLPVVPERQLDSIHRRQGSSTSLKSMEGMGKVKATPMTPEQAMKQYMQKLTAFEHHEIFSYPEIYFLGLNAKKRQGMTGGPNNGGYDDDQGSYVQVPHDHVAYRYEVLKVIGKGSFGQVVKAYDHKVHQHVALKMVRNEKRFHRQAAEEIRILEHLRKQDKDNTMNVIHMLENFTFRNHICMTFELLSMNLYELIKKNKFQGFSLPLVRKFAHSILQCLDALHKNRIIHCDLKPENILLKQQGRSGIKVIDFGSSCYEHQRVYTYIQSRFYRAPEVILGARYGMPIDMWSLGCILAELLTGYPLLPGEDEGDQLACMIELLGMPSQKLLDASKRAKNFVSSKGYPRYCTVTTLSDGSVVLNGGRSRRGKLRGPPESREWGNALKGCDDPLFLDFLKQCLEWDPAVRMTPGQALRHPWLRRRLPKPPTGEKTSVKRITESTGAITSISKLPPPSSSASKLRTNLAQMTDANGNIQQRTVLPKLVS
Description: as §1, §2, §3, §4, §5, §6, §7, §8, §9, §10

DYRK1A = target: T3, DYRK1A (Homo sapiens, UniProt Q13627); experiment: Inhibition test on activity of DYRK family, mobility shift assay (MSA), DYRK1A; conditions: ATP 100 μM, FITC-labeled DYRKtide peptide substrate, room temperature 1 hour; for IC50: read-out: Inhibitory Activity 1a (IC50 against DYRK1A)
T3 construct: purchased Carna Biosciences, Inc. 04-130
Description: as §1, §2, §3, §4, §5, §6, §7, §8, §9, §10

IC50 (DYRK3) [nM] | IC50 (DYRK2) [nM] | Inhibitory Activity 1a (IC50 against DYRK1A) (DYRK1A) | Inhibitory Activity 3 (IC50 against DYRK3) (DYRK3) | Inhibitory Activity 2 (IC50 against DYRK2) (DYRK2) | IC50 (DYRK1A) [nM] | Structure (SMILES)
100 to 1000 | 100 to 1000 | * * * |  |  |  | CC#CC1CNC(=O)N1c1nc2c(ccc3nccn32)s1 (racemic) [Example 6, (RS)-1-(imidazo[1,2-a]thiazolo[5,4-e]pyridin-2-yl)-5-(prop-1-yn-1-yl)imidazolidin-2-one]
≥ 1000 | ≥ 1000 | * * * |  |  |  | CC#CC1CNC(=O)N1c1nc2c(ccc3ocnc32)s1 (racemic) [Example 7, (RS)-5-(prop-1-yn-1-yl)-1-(thiazolo[5′,4′:5,6]benzo[1,2-d]oxazole-7-yl)imidazolidin-2-one]
100 to 1000 | 100 to 1000 | * * |  |  |  | C[Si](C)(C)C#CC1CNC(=O)N1c1nc2c3c(ccc2s1)OCC3 (racemic) [Example 11, (RS)-1-(7,8-dihydrobenzofuro[4,5-d]thiazol-2-yl)-5-[(trimethylsilyl)ethynyl]imidazolidin-2-one]
 |  | * * * | * * | * * |  | C#CC1CNC(=O)N1c1nc2c3c(ccc2s1)OCC3 (racemic) [Example 12, (RS)-1-(7,8-dihydrobenzofuro[4,5-d]thiazol-2-yl)-5-ethynylimidazolidin-2-on]
≥ 1000 | ≥ 1000 |  |  |  | 100 to 1000 | O=C1NCC(C#Cc2ccccc2)N1c1nc2c3c(ccc2s1)OCC3 (racemic) [Example 15, (RS)-1-(7,8-dihydrobenzofuro[4,5-d]thiazol-2-yl)-5-(phenylethynyl)imidazolidin-2-one]
100 to 1000 | ≥ 1000 | * * |  |  |  | CN(C)CC#CC1CNC(=O)N1c1nc2c3c(ccc2s1)OCC3 (racemic) [Example 18, (RS)-1-(7,8-dihydrobenzofuro[4,5-d]thiazol-2-yl)-5-[3-(dimethylamino)prop-1-yn-1-yl]imidazolidin-2-one]
100 to 1000 | 100 to 1000 | * * * |  |  |  | O=C1NCC(C#CCO)N1c1nc2c3c(ccc2s1)OCC3 (racemic) [Example 19, (RS)-1-(7,8-dihydrobenzofuro[4,5-d]thiazol-2-yl)-5-(3-hydroxyprop-1-yn-1-yl)imidazolidin-2-one]
≥ 1000 | ≥ 1000 |  |  |  | 100 to 1000 | COCC#CC1CNC(=O)N1c1nc2c3c(ccc2s1)OCC3 (racemic) [Example 20, (RS)-1-(7,8-dihydrobenzofuro[4,5-d]thiazol-2-yl)-5-(3-methoxyprop-1-yn-1-yl)imidazolidin-2-one]
100 to 1000 | ≥ 1000 | * * * |  |  |  | O=C1NCC(C#CC2CC2)N1c1nc2c3c(ccc2s1)OCC3 (racemic) [Example 21, (RS)-5-(cyclopropylethynyl)-1-(7,8-dihydrobenzofuro[4,5-d]thiazol-2-yl)imidazolidin-2-one]
≥ 1000 | ≥ 1000 | * * |  |  |  | CC(C)(O)C#CC1CNC(=O)N1c1nc2c3c(ccc2s1)OCC3 (racemic) [Example 22, (RS)-1-(7,8-dihydrobenzofuro[4,5-d]thiazol-2-yl)-5-(3-hydroxy-3-methylbut-1-yn-1-yl)imidazolidin-2-one]
100 to 1000 | 100 to 1000 | ** * |  |  |  | CC#CC1CNC(=O)N1c1nc2c(ccc3nc[nH]c32)s1 (racemic) [Example 35, (RS)-1-(8H-imidazo[4′,5′:5,6]benz[1,2-d]thiazol-2-yl)-5-(prop-1-yn-1-yl)imidazolidin-2-one]
 | 100 to 1000 | * * | * * |  |  | CC#CC1CNC(=O)N1c1nc2c(ccc3ncn(CC(C)(C)O)c32)s1 (racemic) [Example 37, (RS)-1-[8-(2-hydroxy-2-methylpropyl)-8H-imidazo[4′,5′;5,6]benz[1,2-d]thiazol-2-yl]-5-(prop-1-yn-1-yl)imidazolidin-2-one]
100 to 1000 | 100 to 1000 | * * * |  |  |  | CC#CC1CNC(=O)N1c1nc2c3c(ccc2s1)OCC(C)N3C (racemic) [Example 40, (RS)-1-((RS)-8,9-dimethyl-8,9-dihydro-7H-thiazolo[4′,5′:3,4]benz[1,2-b][1,4]oxazin-2-yl)-5-(prop-1-yn-1-yl)imidazolidin-2-one]
100 to 1000 | 100 to 1000 | * * * |  |  |  | CC#CC1CNC(=O)N1c1nc2c3c(ccc2s1)OCCN3CCO (racemic) [Example 41, (RS)-1-[9-(2-hydroxyethyl)-8,9-dihydro-7H-thiazolo[4′,5′:3,4]benz[1,2-b][1,4]oxazin-2-yl]-5-(prop-1-yn-1-yl)imidazolidin-2-one]
100 to 1000 | ≥ 1000 | * * * |  |  |  | CC#CC1CNC(=O)N1c1nc2c3c(ccc2s1)OCCN3CCOC (racemic) [Example 42, (RS)-1-[9-(2-methoxyethyl)-8,9-dihydro-7H-thiazolo[4′,5′:3,4]benz[1,2-b][1,4]oxazin-2-yl]-5-(prop-1-yn-1-yl)imidazolidin-2-one]

From US20230138851A1, “NOVEL ALKYNE DERIVATIVES” (CARNA BIOSCIENCES, INC., priority 2020, published 2023)
